Results: ChEMBL document CHEMBL4507294, “Data for DCP probe MSD-CYP11B2” (2021)

Key:
[1] = molecular target: 5-hydroxytryptamine receptor 6 (Homo sapiens, UniProt P50406); experiment: GPCRScan assay: inhibition of 5-HT6; parameters: radioligand conc. used [nm] 2.0 – 4.0, parental cells stable HEK
[2] = molecular target: Cytochrome P450 11B2, mitochondrial (Homo sapiens, UniProt P19099); experiment: Assay using V79 cell lines (CYP11B2); assay type: cell-based
[3] = molecular target: T1, Muscarinic acetylcholine receptor M2 (Homo sapiens) (UniProt P08172); details: Compound concentration 10.0 uM
T1 sequence (whole entry): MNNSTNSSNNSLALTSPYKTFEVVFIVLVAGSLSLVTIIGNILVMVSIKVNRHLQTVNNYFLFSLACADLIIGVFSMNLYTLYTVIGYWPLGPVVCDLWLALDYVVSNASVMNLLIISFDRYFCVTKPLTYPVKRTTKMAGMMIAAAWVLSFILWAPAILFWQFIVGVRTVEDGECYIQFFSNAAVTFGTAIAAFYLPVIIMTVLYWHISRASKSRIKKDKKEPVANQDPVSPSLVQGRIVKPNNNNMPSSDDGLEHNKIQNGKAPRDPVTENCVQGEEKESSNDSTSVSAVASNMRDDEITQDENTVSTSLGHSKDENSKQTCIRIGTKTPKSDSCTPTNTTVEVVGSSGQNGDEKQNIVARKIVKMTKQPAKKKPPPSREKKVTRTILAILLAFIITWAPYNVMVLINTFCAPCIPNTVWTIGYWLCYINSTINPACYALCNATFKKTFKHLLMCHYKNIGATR

[4] = molecular target: Cannabinoid receptor 1 (Homo sapiens) (UniProt P21554); details: Compound concentration 10.0 uM
[5] = molecular target: Phosphodiesterase 3 (Homo sapiens) (UniProt Q14432+Q13370); experiment: Inhibition of Phosphodiesterase PDE3 at compound concentration of 10.0 uM in the Eurofins-Panlabs enzyme assay (Eurofins_assay_152000); assay type: protein assay; parameters: substrate with concentration 1.01 uM [3H] cAMP + cAMP, incubation time 20 min, incubation temperature 25 C; details: Compound concentration 10.0 uM
[6] = molecular target: 5-hydroxytryptamine receptor 2B (Homo sapiens, UniProt P41595); experiment: Inhibition of Serotonin (5-Hydroxytryptamine) 5-HT2B at compound concentration of 10.0 uM in the Eurofins-Panlabs radioligand binding assay (Eurofins_assay_271700); parameters: ligand concentration 1.2 nM, non-specific ligand with concentration 10 uM Serotonin (5-HT), incubation time 60 min, incubation temperature 37 C
[7] = molecular target: D(2) dopamine receptor (Homo sapiens) (UniProt P14416); details: Compound concentration 10.0 uM
[8] = molecular target: GABA-A receptor; anion channel (Rattus norvegicus) (UniProt O09028+P15431+P18506+P18508+P19969+P20236+P23574+P23576+P28471+P28473+P30191+P62813+P63079+P63138+Q91ZM7+Q9ES14); details: Compound concentration 10.0 uM
[9] = molecular target: Beta-1 adrenergic receptor (Homo sapiens, UniProt P08588); experiment: GPCRScan assay: inhibition of Beta1; parameters: radioligand conc. used [nm] 0.1 – 0.2, parental cells CHO Flp-In
Rattus norvegicus [10] = species: Rattus norvegicus; experiment: GABAA, Ro-15-1788, Hippocampus Eurofins-Panlabs radioligand binding assay; parameters: ligand concentration 1 nM; details: Compound concentration 10.0 uM
[11] = molecular target: Histamine H1 receptor (Homo sapiens) (UniProt P35367); details: Compound concentration 10.0 uM
[12] = molecular target: T2, Muscarinic acetylcholine receptor M1 (Homo sapiens) (UniProt P11229); details: Compound concentration 10.0 uM
T2 sequence (whole entry): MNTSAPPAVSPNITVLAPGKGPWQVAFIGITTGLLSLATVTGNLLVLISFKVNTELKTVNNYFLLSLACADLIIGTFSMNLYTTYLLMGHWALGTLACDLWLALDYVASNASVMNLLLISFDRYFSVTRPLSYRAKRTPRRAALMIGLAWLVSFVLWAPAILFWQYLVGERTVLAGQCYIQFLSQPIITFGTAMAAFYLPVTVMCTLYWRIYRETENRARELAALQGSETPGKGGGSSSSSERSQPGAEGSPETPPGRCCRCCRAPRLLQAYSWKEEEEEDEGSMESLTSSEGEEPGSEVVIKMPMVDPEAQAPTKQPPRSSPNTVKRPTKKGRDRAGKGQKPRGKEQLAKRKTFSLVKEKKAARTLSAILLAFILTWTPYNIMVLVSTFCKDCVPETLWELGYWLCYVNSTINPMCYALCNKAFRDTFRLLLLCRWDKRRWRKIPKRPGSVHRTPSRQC

Rattus norvegicus [13] = species: Rattus norvegicus; experiment: Inhibition of Glutamate, NMDA, Phencyclidine at 10 µM in the Eurofins-Panlabs radioligand binding assay (Eurofins_assay_233000); assay type: protein-complex assay; details: Compound concentration 10.0 uM
[14] = molecular target: Melanocortin receptor 4 (Homo sapiens) (UniProt P32245); experiment: Inhibition of Melanocortin MC4 at 10 µM in the Eurofins-Panlabs radioligand binding assay (Eurofins_assay_251350); parameters: ligand concentration 0.02 nM; details: Compound concentration 10.0 uM
Rattus norvegicus [15] = species: Rattus norvegicus; experiment: Glutamate, NMDA, Polyamine Eurofins-Panlabs radioligand binding assay; assay type: protein-complex assay; parameters: ligand concentration 2 nM; details: Compound concentration 10.0 uM
[16] = molecular target: Glutamate receptor ionotropic, kainate (Rattus norvegicus) (UniProt P22756+Q01812+P42260+P42264+Q63273); experiment: Inhibition of Glutamate, Kainate at 10 µM in the Eurofins-Panlabs radioligand binding assay (Eurofins_assay_232700); details: Compound concentration 10.0 uM
Homo sapiens = species: Homo sapiens; experiment: Inhibition of Nicotinic Acetylcholine at compound concentration of 10.0 uM in the Eurofins-Panlabs radioligand binding assay (Eurofins_assay_258590); assay type: protein-complex assay; details: Compound concentration 10.0 uM
[17] = molecular target: Mu-type opioid receptor (Homo sapiens) (UniProt P35372); details: Compound concentration 10.0 uM
[18] = molecular target: T3, 5-hydroxytryptamine receptor 3A (Homo sapiens) (UniProt P46098); experiment: Inhibition of Serotonin (5-Hydroxytryptamine) 5-HT3 at 10 µM in the Eurofins-Panlabs radioligand binding assay (Eurofins_assay_271910); parameters: ligand concentration 0.69 nM; details: Compound concentration 10.0 uM
T3 sequence (whole entry): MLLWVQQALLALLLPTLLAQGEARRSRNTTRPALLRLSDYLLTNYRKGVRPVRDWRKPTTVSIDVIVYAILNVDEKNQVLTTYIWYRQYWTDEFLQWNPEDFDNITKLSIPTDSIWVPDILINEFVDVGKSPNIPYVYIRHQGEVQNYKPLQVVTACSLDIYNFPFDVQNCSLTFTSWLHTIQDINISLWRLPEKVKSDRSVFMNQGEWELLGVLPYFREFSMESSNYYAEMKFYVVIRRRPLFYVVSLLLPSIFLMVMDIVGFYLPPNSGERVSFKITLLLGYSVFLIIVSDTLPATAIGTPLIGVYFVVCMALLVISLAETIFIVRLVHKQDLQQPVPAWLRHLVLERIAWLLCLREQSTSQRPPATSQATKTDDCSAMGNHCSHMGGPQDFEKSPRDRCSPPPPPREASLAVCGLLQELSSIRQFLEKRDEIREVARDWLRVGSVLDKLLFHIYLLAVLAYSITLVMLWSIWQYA

[19] = molecular target: Glutamate receptor 2 (Homo sapiens) (UniProt P42262); details: Rattus norvegicus; Compound concentration 10.0 uM
Glutamate receptor 2 (Homo sapiens), sequence (P42262 whole entry): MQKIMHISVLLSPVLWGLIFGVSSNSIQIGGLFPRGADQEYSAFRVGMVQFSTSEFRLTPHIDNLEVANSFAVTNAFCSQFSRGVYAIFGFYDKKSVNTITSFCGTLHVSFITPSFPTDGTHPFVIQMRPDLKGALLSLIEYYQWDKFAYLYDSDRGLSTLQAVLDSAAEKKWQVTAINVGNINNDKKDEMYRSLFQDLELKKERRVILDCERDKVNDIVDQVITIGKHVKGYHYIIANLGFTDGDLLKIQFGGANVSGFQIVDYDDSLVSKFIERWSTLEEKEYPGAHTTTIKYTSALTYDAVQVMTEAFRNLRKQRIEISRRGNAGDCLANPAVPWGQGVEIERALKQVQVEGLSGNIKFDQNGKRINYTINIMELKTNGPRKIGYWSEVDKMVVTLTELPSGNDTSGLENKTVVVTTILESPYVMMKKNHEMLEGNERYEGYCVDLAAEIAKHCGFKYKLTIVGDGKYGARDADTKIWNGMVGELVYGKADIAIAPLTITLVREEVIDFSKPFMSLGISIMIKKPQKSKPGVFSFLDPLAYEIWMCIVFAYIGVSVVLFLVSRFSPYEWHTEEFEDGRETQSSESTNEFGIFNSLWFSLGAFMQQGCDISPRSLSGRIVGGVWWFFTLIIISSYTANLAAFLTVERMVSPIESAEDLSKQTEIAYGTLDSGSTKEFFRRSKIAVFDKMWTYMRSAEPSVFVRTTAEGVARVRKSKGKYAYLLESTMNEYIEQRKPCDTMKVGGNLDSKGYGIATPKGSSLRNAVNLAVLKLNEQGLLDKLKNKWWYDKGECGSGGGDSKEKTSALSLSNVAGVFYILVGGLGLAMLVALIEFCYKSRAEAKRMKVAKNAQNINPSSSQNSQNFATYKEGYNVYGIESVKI

5-hydroxytryptamine receptor 2B, sequence (P41595 whole entry): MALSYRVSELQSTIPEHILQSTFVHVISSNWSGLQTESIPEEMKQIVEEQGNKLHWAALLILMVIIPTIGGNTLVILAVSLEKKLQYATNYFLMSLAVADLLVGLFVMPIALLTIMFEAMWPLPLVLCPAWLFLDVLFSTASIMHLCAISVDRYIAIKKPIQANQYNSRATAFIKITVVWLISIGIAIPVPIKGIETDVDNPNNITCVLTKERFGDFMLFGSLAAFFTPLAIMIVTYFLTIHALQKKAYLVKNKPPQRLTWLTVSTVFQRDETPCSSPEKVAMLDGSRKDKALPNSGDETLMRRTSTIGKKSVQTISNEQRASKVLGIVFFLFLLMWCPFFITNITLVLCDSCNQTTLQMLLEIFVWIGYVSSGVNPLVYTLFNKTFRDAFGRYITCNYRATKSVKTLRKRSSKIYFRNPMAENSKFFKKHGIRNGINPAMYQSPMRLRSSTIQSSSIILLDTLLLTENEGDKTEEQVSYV
Cannabinoid receptor 1 (Homo sapiens), sequence (P21554 whole entry): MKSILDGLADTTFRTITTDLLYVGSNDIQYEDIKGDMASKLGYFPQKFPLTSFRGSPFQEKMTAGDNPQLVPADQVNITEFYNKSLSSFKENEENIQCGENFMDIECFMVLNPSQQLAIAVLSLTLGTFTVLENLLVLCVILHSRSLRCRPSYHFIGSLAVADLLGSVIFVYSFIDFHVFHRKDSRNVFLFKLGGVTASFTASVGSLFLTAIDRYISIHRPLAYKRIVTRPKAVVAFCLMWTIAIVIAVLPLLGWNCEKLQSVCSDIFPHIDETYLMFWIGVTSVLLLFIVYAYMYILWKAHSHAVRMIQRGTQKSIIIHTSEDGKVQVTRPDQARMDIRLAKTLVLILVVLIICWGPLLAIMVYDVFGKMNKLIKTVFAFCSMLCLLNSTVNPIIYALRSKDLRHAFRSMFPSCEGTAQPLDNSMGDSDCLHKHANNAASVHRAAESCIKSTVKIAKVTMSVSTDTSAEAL
D(2) dopamine receptor (Homo sapiens), sequence (P14416 whole entry): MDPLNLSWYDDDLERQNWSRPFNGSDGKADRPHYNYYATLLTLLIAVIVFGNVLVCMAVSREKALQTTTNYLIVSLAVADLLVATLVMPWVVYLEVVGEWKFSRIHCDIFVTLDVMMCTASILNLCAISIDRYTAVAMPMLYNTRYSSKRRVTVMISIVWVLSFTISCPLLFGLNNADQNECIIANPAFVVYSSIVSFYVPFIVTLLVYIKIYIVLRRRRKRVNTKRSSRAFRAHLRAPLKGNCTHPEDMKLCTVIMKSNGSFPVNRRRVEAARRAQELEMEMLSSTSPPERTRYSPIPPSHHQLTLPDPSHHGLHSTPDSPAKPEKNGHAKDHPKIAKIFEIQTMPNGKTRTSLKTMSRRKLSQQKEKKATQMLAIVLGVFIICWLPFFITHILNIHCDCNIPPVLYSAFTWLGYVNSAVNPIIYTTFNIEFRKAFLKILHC
Histamine H1 receptor (Homo sapiens), sequence (P35367 whole entry): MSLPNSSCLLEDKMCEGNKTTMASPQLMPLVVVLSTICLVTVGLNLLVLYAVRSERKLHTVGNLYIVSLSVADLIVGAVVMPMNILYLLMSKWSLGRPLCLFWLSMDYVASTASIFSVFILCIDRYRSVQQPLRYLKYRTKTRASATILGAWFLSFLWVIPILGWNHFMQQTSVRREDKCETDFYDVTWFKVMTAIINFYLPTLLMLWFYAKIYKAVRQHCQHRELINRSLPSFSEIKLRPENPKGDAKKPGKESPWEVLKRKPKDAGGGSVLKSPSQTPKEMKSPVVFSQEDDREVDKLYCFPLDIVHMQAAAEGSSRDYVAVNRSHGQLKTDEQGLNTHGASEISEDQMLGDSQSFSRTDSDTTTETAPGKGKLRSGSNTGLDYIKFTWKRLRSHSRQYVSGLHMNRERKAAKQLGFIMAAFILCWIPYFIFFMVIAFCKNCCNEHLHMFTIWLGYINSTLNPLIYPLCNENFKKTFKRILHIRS
Beta-1 adrenergic receptor, sequence (P08588 whole entry): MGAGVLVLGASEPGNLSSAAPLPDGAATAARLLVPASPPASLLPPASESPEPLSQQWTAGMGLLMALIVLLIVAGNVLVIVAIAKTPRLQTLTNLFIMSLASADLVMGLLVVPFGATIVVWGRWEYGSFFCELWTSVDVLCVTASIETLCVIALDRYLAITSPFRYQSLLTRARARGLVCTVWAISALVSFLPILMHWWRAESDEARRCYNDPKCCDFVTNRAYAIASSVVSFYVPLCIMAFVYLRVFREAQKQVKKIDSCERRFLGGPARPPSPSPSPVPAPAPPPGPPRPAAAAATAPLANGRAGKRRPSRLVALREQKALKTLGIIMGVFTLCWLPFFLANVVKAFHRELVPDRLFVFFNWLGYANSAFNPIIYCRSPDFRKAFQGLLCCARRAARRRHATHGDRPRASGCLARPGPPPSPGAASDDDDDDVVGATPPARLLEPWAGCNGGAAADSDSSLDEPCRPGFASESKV
Mu-type opioid receptor (Homo sapiens), sequence (P35372 whole entry): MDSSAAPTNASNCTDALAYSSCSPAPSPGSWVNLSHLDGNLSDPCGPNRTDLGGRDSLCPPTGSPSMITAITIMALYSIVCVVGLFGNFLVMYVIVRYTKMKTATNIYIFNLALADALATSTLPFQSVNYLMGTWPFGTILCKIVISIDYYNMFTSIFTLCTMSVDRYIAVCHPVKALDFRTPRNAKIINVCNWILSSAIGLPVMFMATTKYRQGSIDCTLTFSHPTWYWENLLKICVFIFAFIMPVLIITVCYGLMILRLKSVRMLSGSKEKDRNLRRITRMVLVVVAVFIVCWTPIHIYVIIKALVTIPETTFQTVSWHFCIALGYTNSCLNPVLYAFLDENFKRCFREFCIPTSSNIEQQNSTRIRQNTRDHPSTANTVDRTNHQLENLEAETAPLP
Cytochrome P450 11B2, mitochondrial, sequence (P19099 whole entry): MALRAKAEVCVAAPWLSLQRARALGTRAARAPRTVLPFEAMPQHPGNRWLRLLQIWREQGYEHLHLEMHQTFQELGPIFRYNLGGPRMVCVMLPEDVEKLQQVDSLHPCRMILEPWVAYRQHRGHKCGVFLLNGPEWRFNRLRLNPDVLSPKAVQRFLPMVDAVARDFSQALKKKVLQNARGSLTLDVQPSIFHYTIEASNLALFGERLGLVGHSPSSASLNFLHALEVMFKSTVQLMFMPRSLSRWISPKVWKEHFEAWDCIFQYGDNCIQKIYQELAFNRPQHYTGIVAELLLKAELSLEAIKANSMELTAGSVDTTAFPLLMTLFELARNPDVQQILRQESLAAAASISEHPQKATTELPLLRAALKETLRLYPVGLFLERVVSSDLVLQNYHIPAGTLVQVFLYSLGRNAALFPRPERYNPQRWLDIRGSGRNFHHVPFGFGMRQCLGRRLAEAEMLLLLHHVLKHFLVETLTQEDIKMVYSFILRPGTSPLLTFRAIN
Melanocortin receptor 4 (Homo sapiens), sequence (P32245 whole entry): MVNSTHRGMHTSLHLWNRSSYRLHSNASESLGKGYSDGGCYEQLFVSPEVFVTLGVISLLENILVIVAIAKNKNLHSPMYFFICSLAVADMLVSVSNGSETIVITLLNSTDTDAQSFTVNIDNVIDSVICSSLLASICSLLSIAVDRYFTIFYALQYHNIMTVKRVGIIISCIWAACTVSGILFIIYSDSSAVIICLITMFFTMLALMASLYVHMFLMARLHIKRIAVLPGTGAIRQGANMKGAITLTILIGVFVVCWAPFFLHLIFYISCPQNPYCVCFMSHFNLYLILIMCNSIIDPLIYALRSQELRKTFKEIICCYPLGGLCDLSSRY
5-hydroxytryptamine receptor 6, sequence (P50406 whole entry): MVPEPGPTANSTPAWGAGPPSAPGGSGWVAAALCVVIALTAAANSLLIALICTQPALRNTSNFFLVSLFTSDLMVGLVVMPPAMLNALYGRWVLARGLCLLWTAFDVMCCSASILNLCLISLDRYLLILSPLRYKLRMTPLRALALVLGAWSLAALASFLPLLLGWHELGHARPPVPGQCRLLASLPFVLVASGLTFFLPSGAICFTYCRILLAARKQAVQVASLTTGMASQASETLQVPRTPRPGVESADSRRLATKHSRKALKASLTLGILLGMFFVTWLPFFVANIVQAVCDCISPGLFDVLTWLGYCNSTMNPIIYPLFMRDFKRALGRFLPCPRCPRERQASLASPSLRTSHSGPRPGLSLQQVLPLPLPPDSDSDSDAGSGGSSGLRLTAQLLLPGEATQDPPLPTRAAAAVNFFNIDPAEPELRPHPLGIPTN

FC(F)(F)c1ccc2c(c1)nc(-c1cccnc1)n2C1CC1 [MSD-CYP11B2-Negative-control]
3.06 µM: Ki [1]
> 10 µM (not active): IC50 [2]

CC(C)(O)c1cncc(-c2nc3ccc(F)cc3n2C2CC2)c1 [MSD-CYP11B2]
5.33 µM: IC50 [6]
2.37 µM: Ki [9]
inactive: inhibition [3] 6% | inhibition [4] 7% | inhibition [5] 10% | inhibition [7] -4% | inhibition [8] 6.26% | inhibition (Rattus norvegicus [10]) 12% | inhibition [11] 23% | inhibition [12] -4% | inhibition (Rattus norvegicus [13]) 3% | inhibition [14] -1% | inhibition (Rattus norvegicus [15]) -3% | inhibition [16] -5% | inhibition (Homo sapiens) -3% | inhibition [17] 7% | inhibition [18] -4% | inhibition [19] 22%
3.39 µM: Ki [6]
